pKi: −log10 of the molar value. In brackets after ≈: the same amount, converted by molar mass. Read-outs that look alike come from different tables or passages of the source.
Tests used:
[1] = design: method as in 2 sources, ref Wu et al., 2005 ||| ref Li et al., 2014; conditions: cited from earlier work
CYP3A4 = conditions: cited from earlier work
Caco2 cell system = conditions: Caco-2; cited from earlier work
P-gp = conditions: rats; after multiple oral doses of BG; ref Tian et al., 2019; cited from earlier work
[2] = Clinical drug-drug interaction study, non-compartmental pharmacokinetics of CsA in blood; assay type: in vivo, healthy Chinese volunteers; conditions: single 500 mg BG dose with 200 mg CsA; healthy volunteers; NCA
Experimental: The study was a single center, open-labeled, two-period, fixed-sequence clinical trial. […] Water intake was allowed 2 h after administration of the drug. All participants were given a standardized meal 4 h after dosing. […] Blood samples were withdrawn using vacuum tubes containing EDTA-K2 and immediately transferred to labeled tubes. The samples were stored at −80°C for subsequent analysis. […] Processing of the whole blood samples involved a two-step protein precipitation. Fifty microliters of zinc sulfate (10 mM) were added to 50 μl of a sample. […] After centrifugation, an aliquot (2 μl) of the supernatant was then injected onto an ultra high-performance liquid chromatography coupled with tandem mass spectrometry (UHPLC–MS/MS) device for analysis. UHPLC–MS/MS was performed using an ExionLC™ analytical UHPLC system (AB Sciex, MA, USA), coupled with a Qtrap 4,500 mass spectrometer (AB Sciex, Framingham, MA, USA), equipped with the Turbo lonSpray interface. […] The protonated analyte ions were detected in positive ionization and multiple reaction monitoring modes. […] Calibration curves were linear over the concentration range of 10–3,000 ng/ml. […] Exploratory statistical comparisons of pharmacokinetic parameters between male and female subjects were performed by the t-test for independent data. […]

[3] = intravenous high BG doses (0.23–0.90g/kg) to rats; ref Xin et al., 2013; cited from earlier work
[4] = rats, cited from earlier work
[5] = Population pharmacokinetic analysis of CsA (NONMEM, two-compartment model with transit compartments); assay type: in vivo, healthy Chinese volunteers; conditions: 95% CIs from 1,000 bootstrap samples included 1.0 and were inside 0.8–1.25
[6] = cited from earlier work
Source text: After oral administration, BG is rapidly hydrolyzed to baicalein ...

[7] = design: method as in 2 sources, one per row (each row's own in cited_ref): ref Albengres and Tillement, 1992; Keogh et al., 1995 ||| ref Atiq et al., 2016; conditions: ref Albengres and Tillement, 1992; Keogh et al., 1995; cited from earlier work
[8] = multiple oral administrations of BG 80 mg/kg, ref Tian et al., 2019
[9] = single dose of BG 136.6 mg/kg, ref Lai et al., 2004

O=c1cc(-c2ccccc2)oc2cc(O)c(O)c(O)c12 [B, baicalein]
Exposure to BG relative to exposure to B ([1]; B single doses to healthy volunteers, ref Li et al., 2014): more than 10 fold
AUC of BG ([1]; after oral administration of 100 mg B, healthy volunteers, ref Li et al., 2014): 580 ng·h/mL
Tmax for both BG and B ([1]; oral B, ref Li et al., 2014): about 1 h
pKi (CYP3A4): 5.64
Papp (Caco2 cell system): 9e-06 cm/s

O=C(O)[C@H]1O[C@@H](Oc2cc3oc(-c4ccccc4)cc(=O)c3c(O)c2O)[C@H](O)[C@@H](O)[C@@H]1O [BG, baicalein 7-O-glucuronide]
Expression of P-gp in the intestine (P-gp): increased
Expression of P-gp in the liver (P-gp): not changed
Effect of BG co-administration on the exposure of CsA [2]: no clinically relevant effect
AUC of BG ([1]; after oral administration of 750 mg BG, healthy subjects, ref Wu et al., 2005): 613 ng·h/mL
Tmax ([1]; oral BG, ref Wu et al., 2005): 7.4 h
Decrease of the clearance of midazolam [3]: up to 43%
Effect on the exposure of CsA ([4]; multiple intravenous doses of BG, ref Tian et al., 2019): did not affect the exposure of CsA
Decrease of AUC0-∞ of CsA [4, 8]: 25%
Decrease of Cmax of CsA [4, 8]: 38%
Effect on Cmax and AUC0-∞ of CsA ([4]; oral administration of BG, ref Tian et al., 2019): significantly decreased
Effect on exposure to CsA ([4]; ref Lai et al., 2004): increased exposure to oral CsA
Elevation of AUC of CsA compared with CsA alone [4, 9]: ~6 times
Elevation of Cmax of CsA compared with CsA alone [4, 9]: about 4 times
Effect on the pharmacokinetics of CsA ([4]; single intravenous dose and multiple doses of BG, ref Tian et al., 2019): had no effect
Papp (Caco2 cell system): 0.275 ± 1.14 × 10^−6 cm/s
Effect of factor BG co-treatment on popPK parameters of CsA (except Ka and Q) [5]: did not affect the respective pharmacokinetic parameters of CsA to a clinically relevant extent
Bound to proteins ([6]; human plasma, ref Tang et al., 2006): 86–92%
Solubility ([6]; in water, ref Wu et al., 2011): 57 µg/mL (≈ 128 µM)
Elimination half-life ([6]; ref Noh et al., 2016): 6.36 ± 5.85 h
Oral bioavailability ([6]; ref Wu et al., 2014): 2.2%

CC(=O)N1CCN(c2ccc(OCC3COC(Cn4ccnc4)(c4ccc(Cl)cc4Cl)O3)cc2)CC1 (centres unmarked) [ketoconazole]
Elevation of CsA concentrations by concomitant administration [7]: several-fold

Reference: article PMC6528491 (Frontiers in Pharmacology, 2019)
